Results taken from ChEMBL document CHEMBL6074659, “Development of an Intravenously Stable Disulfide-Rich Peptide for the Treatment of Chemotherapy-Induced Neuropathic Pain” (J Med Chem, 2024).
Starred links: 1 amine or outer side, 2 acyl side, 3 side chain; linkers in the order of their positions; H or OH if unused. Positions of bridges follow the written chain, without caps; N, C: chain ends. Non-standard residues stand in square brackets, D forms with d. Residues, ends and D or L forms follow the SMILES beside them. Triazole bridges read from a SMILES are 1,4-linked. Aha = [N-]=[N+]=NCC[C@H](N)C(=O)O; Pra = C#CC[C@H](N)C(=O)O; Dap = NC[C@H](N)C(=O)O; CH2 = C([*:1])[*:2]

Legend:
[1] = Stability in human serum assessed as parent compound remaining incubated at 24 hrs by RP-HPLC analysis; format: ADME, cell-free; conditions: human serum, read-out: Stability
[2] = molecular target: Neuronal acetylcholine receptor; alpha9/alpha10 (Homo sapiens) (UniProt Q9UGM1+Q9GZZ6); assay: Antagonist activity at human alpha9alpha10 nAChR expressed in acetylcholine-induced Xenopus laevis oocytes assessed as inhibition of acetylcholine-induced current at 10 nM at -80 mV holding potential incubated for 5 mins by two electrode voltage-clamp assay relative to control; format: cell-based; conditions: Oocyte

CC[C@H](C)[C@@H]1NC(=O)[C@H](CC(=O)O)NC(=O)[C@@H]2CCCN2C(=O)[C@H](CC(N)=O)NC(=O)[C@H](CC(N)=O)NC(=O)[C@H](C(C)C)NC(=O)[C@H](CO)NC(=O)[C@@H]2CSCSC[C@@H]3NC(=O)CNC(=O)[C@@H](N)CCC(=O)NC[C@@H](C(N)=O)NC(=O)[C@H](CSSC[C@H](NC3=O)C(=O)N[C@@H](CN)C(=O)N[C@@H](Cc3cnc[nH]3)C(=O)N3CCC[C@H]3C(=O)N[C@@H](C)C(=O)N2)NC1=O (H-EGCC[Dap]HPACSVNNPDIC[Dap]-NH2; lactam 1-18; linker 3-9 via CH2; disulfide 4-17)
remaining at 24 h [1]: 57.3%

CC[C@H](C)[C@@H]1NC(=O)[C@H](CC(=O)O)NC(=O)[C@@H]2CCCN2C(=O)[C@H](CC(N)=O)NC(=O)[C@H](CC(N)=O)NC(=O)[C@H](C(C)C)NC(=O)[C@H](CO)NC(=O)[C@@H]2CSSC[C@H](NC(=O)CN)C(=O)N[C@@H](CCn3cc(nn3)C[C@@H](C(N)=O)NC1=O)C(=O)N[C@@H](CN)C(=O)N[C@@H](Cc1cnc[nH]1)C(=O)N1CCC[C@H]1C(=O)N[C@@H](C)C(=O)N2 (H-GC[Aha][Dap]HPACSVNNPDI[Pra]-NH2; disulfide 2-8; triazole 3-16)
inhibition [2]: < 15%

CC[C@H](C)[C@@H]1NC(=O)[C@H](CC(=O)O)NC(=O)[C@@H]2CCCN2C(=O)[C@H](CC(N)=O)NC(=O)[C@H](CC(N)=O)NC(=O)[C@H](C(C)C)NC(=O)[C@H](CO)NC(=O)[C@@H]2CSSC[C@H](NC(=O)CN)C(=O)N[C@@H](Cc3cn(nn3)CC[C@@H](C(N)=O)NC1=O)C(=O)N[C@@H](CN)C(=O)N[C@@H](Cc1cnc[nH]1)C(=O)N1CCC[C@H]1C(=O)N[C@@H](C)C(=O)N2 (H-GC[Pra][Dap]HPACSVNNPDI[Aha]-NH2; disulfide 2-8; triazole 3-16)
inhibition [2]: < 15%

CC[C@H](C)[C@@H]1NC(=O)[C@H](CC(=O)O)NC(=O)[C@@H]2CCCN2C(=O)[C@H](CC(N)=O)NC(=O)[C@H](CC(N)=O)NC(=O)[C@H](C(C)C)NC(=O)[C@H](CO)NC(=O)[C@@H]2CSSC[C@@H]3NC(=O)CNC(=O)CNC(=O)[C@H](C)NC(=O)CNC(=O)[C@H](C)NC(=O)[C@H](C)NC(=O)CNC(=O)CNC(=O)[C@H](CSSC[C@H](NC3=O)C(=O)N[C@@H](CN)C(=O)N[C@@H](Cc3cnc[nH]3)C(=O)N3CCC[C@H]3C(=O)N[C@@H](C)C(=O)N2)NC1=O (HELM PEPTIDE1{A.A.G.A.G.G.C.C.[NC[C@H](N[*:1])C(=O)[*:2]].H.P.A.C.S.V.N.N.P.D.I.C.G.G}$PEPTIDE1,PEPTIDE1,7:R3-13:R3|PEPTIDE1,PEPTIDE1,8:R3-21:R3|PEPTIDE1,PEPTIDE1,1:R1-23:R2$$$V2.0)
inhibition ([2]; filed as antagonist): > 85%
remaining at 24 h [1]: 61.7%

CC[C@H](C)[C@@H]1NC(=O)[C@H](CC(=O)O)NC(=O)[C@@H]2CCCN2C(=O)[C@H](CC(N)=O)NC(=O)[C@H](CC(N)=O)NC(=O)[C@H](C(C)C)NC(=O)[C@H](CO)NC(=O)[C@@H]2CSSC[C@@H]3NC(=O)CNC(=O)CNC(=O)[C@H](C)NC(=O)[C@H](C)NC(=O)CNC(=O)CNC(=O)[C@H](CSSC[C@H](NC3=O)C(=O)N[C@@H](CN)C(=O)N[C@@H](Cc3cnc[nH]3)C(=O)N3CCC[C@H]3C(=O)N[C@@H](C)C(=O)N2)NC1=O (HELM PEPTIDE1{A.A.G.G.C.C.[NC[C@H](N[*:1])C(=O)[*:2]].H.P.A.C.S.V.N.N.P.D.I.C.G.G}$PEPTIDE1,PEPTIDE1,5:R3-11:R3|PEPTIDE1,PEPTIDE1,6:R3-19:R3|PEPTIDE1,PEPTIDE1,1:R1-21:R2$$$V2.0)
inhibition [2]: 20%
remaining at 24 h [1]: < 40%

CC[C@H](C)[C@@H]1NC(=O)[C@H](CC(=O)O)NC(=O)[C@@H]2CCCN2C(=O)[C@H](CC(N)=O)NC(=O)[C@H](CC(N)=O)NC(=O)[C@H](C(C)C)NC(=O)[C@H](CO)NC(=O)[C@@H]2CSSC[C@@H]3NC(=O)CNC(=O)CNC(=O)[C@H](C)NC(=O)[C@H](C)NC(=O)CNC(=O)[C@H](CSSC[C@H](NC3=O)C(=O)N[C@@H](CN)C(=O)N[C@@H](Cc3cnc[nH]3)C(=O)N3CCC[C@H]3C(=O)N[C@@H](C)C(=O)N2)NC1=O (HELM PEPTIDE1{A.A.G.G.C.C.[NC[C@H](N[*:1])C(=O)[*:2]].H.P.A.C.S.V.N.N.P.D.I.C.G}$PEPTIDE1,PEPTIDE1,5:R3-11:R3|PEPTIDE1,PEPTIDE1,6:R3-19:R3|PEPTIDE1,PEPTIDE1,1:R1-20:R2$$$V2.0)
inhibition [2]: < 10%
remaining at 24 h [1]: < 40%

CC[C@H](C)[C@@H]1NC(=O)[C@H](CC(=O)O)NC(=O)[C@@H]2CCCN2C(=O)[C@H](CC(N)=O)NC(=O)[C@H](CC(N)=O)NC(=O)[C@H](C(C)C)NC(=O)[C@H](CO)NC(=O)[C@@H]2CSSC[C@@H]3NC(=O)CNC(=O)CNC(=O)CNC(=O)[C@H](C)NC(=O)[C@H](C)NC(=O)CNC(=O)CNC(=O)[C@H](CSSC[C@H](NC3=O)C(=O)N[C@@H](CN)C(=O)N[C@@H](Cc3cnc[nH]3)C(=O)N3CCC[C@H]3C(=O)N[C@@H](C)C(=O)N2)NC1=O (HELM PEPTIDE1{A.A.G.G.G.C.C.[NC[C@H](N[*:1])C(=O)[*:2]].H.P.A.C.S.V.N.N.P.D.I.C.G.G}$PEPTIDE1,PEPTIDE1,6:R3-12:R3|PEPTIDE1,PEPTIDE1,7:R3-20:R3|PEPTIDE1,PEPTIDE1,1:R1-22:R2$$$V2.0)
inhibition ([2]; filed as antagonist): > 85%
remaining at 24 h [1]: 43.3%

CC[C@H](C)[C@@H]1NC(=O)[C@H](CC(=O)O)NC(=O)[C@@H]2CCCN2C(=O)[C@H](CC(N)=O)NC(=O)[C@H](CC(N)=O)NC(=O)[C@H](C(C)C)NC(=O)[C@H](CO)NC(=O)[C@@H]2CSCSC[C@@H]3NC(=O)CNC(=O)[C@@H](N)CCC(=O)NCC[C@@H](C(N)=O)NC(=O)[C@H](CSSC[C@H](NC3=O)C(=O)N[C@@H](CN)C(=O)N[C@@H](Cc3cnc[nH]3)C(=O)N3CCC[C@H]3C(=O)N[C@@H](C)C(=O)N2)NC1=O (HELM PEPTIDE1{E.G.C.C.[NC[C@H](N[*:1])C(=O)[*:2]].H.P.A.C.S.V.N.N.P.D.I.C.[Dab].[am]}|CHEM1{[C([*:1])[*:2]]}$PEPTIDE1,PEPTIDE1,1:R3-18:R3|PEPTIDE1,CHEM1,3:R3-1:R1|PEPTIDE1,CHEM1,9:R3-1:R2|PEPTIDE1,PEPTIDE1,4:R3-17:R3$$$V2.0)
inhibition [2]: < 5%

CC[C@H](C)[C@@H]1NC(=O)[C@H](CC(=O)O)NC(=O)[C@@H]2CCCN2C(=O)[C@H](CC(N)=O)NC(=O)[C@H](CC(N)=O)NC(=O)[C@H](C(C)C)NC(=O)[C@H](CO)NC(=O)[C@@H]2CSSC[C@H](NC(=O)CN)C(=O)N[C@@H](CCC(=O)NCC[C@@H](C(N)=O)NC1=O)C(=O)N[C@@H](CN)C(=O)N[C@@H](Cc1cnc[nH]1)C(=O)N1CCC[C@H]1C(=O)N[C@@H](C)C(=O)N2 (HELM PEPTIDE1{G.C.E.[NC[C@H](N[*:1])C(=O)[*:2]].H.P.A.C.S.V.N.N.P.D.I.[Dab].[am]}$PEPTIDE1,PEPTIDE1,2:R3-8:R3|PEPTIDE1,PEPTIDE1,3:R3-16:R3$$$V2.0)
inhibition [2]: < 5%

CC[C@H](C)[C@@H]1NC(=O)[C@H](CC(=O)O)NC(=O)[C@@H]2CCCN2C(=O)[C@H](CC(N)=O)NC(=O)[C@H](CC(N)=O)NC(=O)[C@H](C(C)C)NC(=O)[C@H](CO)NC(=O)[C@@H]2CSSC[C@H](NC(=O)CN)C(=O)N[C@@H](CCC(=O)NC[C@@H](C(N)=O)NC1=O)C(=O)N[C@@H](CN)C(=O)N[C@@H](Cc1cnc[nH]1)C(=O)N1CCC[C@H]1C(=O)N[C@@H](C)C(=O)N2 (HELM PEPTIDE1{G.C.E.[NC[C@H](N[*:1])C(=O)[*:2]].H.P.A.C.S.V.N.N.P.D.I.[O=C([C@H](CN[*:3])N[*:1])[*:2]].[am]}$PEPTIDE1,PEPTIDE1,2:R3-8:R3|PEPTIDE1,PEPTIDE1,3:R3-16:R3$$$V2.0)
remaining at 24 h [1]: 57.3%

CC[C@H](C)[C@@H]1NC(=O)[C@H](CC(=O)O)NC(=O)[C@@H]2CCCN2C(=O)[C@H](CC(N)=O)NC(=O)[C@H](CC(N)=O)NC(=O)[C@H](C(C)C)NC(=O)[C@H](CO)NC(=O)[C@@H]2CSSC[C@H](NC(=O)CN)C(=O)N[C@@H](CCNC(=O)C[C@@H](C(N)=O)NC1=O)C(=O)N[C@@H](CN)C(=O)N[C@@H](Cc1cnc[nH]1)C(=O)N1CCC[C@H]1C(=O)N[C@@H](C)C(=O)N2 (HELM PEPTIDE1{G.C.[Dab].[NC[C@H](N[*:1])C(=O)[*:2]].H.P.A.C.S.V.N.N.P.D.I.D.[am]}$PEPTIDE1,PEPTIDE1,2:R3-8:R3|PEPTIDE1,PEPTIDE1,3:R3-16:R3$$$V2.0)
inhibition [2]: < 5%

CC[C@H](C)[C@@H]1NC(=O)[C@H](CC(=O)O)NC(=O)[C@@H]2CCCN2C(=O)[C@H](CC(N)=O)NC(=O)[C@H](CC(N)=O)NC(=O)[C@H](C(C)C)NC(=O)[C@H](CO)NC(=O)[C@@H]2CSSC[C@@H]3NC(=O)CNC(=O)[C@@H](N)CCNC(=O)C[C@@H](C(N)=O)NC(=O)[C@H](CSSC[C@H](NC3=O)C(=O)N[C@@H](CN)C(=O)N[C@@H](Cc3cnc[nH]3)C(=O)N3CCC[C@H]3C(=O)N[C@@H](C)C(=O)N2)NC1=O (HELM PEPTIDE1{[Dab].G.C.C.[NC[C@H](N[*:1])C(=O)[*:2]].H.P.A.C.S.V.N.N.P.D.I.C.D.[am]}$PEPTIDE1,PEPTIDE1,1:R3-18:R3|PEPTIDE1,PEPTIDE1,3:R3-9:R3|PEPTIDE1,PEPTIDE1,4:R3-17:R3$$$V2.0)
inhibition [2]: < 5%

CC[C@H](C)[C@@H]1NC(=O)[C@H](CC(=O)O)NC(=O)[C@@H]2CCCN2C(=O)[C@H](CC(N)=O)NC(=O)[C@H](CC(N)=O)NC(=O)[C@H](C(C)C)NC(=O)[C@H](CO)NC(=O)[C@@H]2CSSC[C@@H]3NC(=O)CNC(=O)[C@@H](N)CCNC(=O)CC[C@@H](C(N)=O)NC(=O)[C@H](CSSC[C@H](NC3=O)C(=O)N[C@@H](CN)C(=O)N[C@@H](Cc3cnc[nH]3)C(=O)N3CCC[C@H]3C(=O)N[C@@H](C)C(=O)N2)NC1=O (HELM PEPTIDE1{[Dab].G.C.C.[NC[C@H](N[*:1])C(=O)[*:2]].H.P.A.C.S.V.N.N.P.D.I.C.E.[am]}$PEPTIDE1,PEPTIDE1,1:R3-18:R3|PEPTIDE1,PEPTIDE1,3:R3-9:R3|PEPTIDE1,PEPTIDE1,4:R3-17:R3$$$V2.0)
inhibition [2]: < 5%
